# Results reported in US10758620B2, “Potentiated antimicrobial agents” (SEPTEOS, priority 2014, dated 2020).
# Where two headings read alike, the source gives them in different places.
# What was measured:
# candidas = assay: MIC measurement (dilution test) on yeast strains; type: cell-based, Candida; set-up: key to MIC 90 gain / MIC 50 gain: gain = MIC of antifungal alone / MIC of antifungal + booster; conditions: Sertaconazole with booster, solvent DMSO
# Description: Inhibitory minimum concentration measurement tests are made in a solid agar medium according to international standards in force (CLSI M7-A9 Jan 12 standards): dispersion of the compounds to be tested in a Mueller Hinton gelose. An adaptation relating to the hydrophobicity of compounds and compositions is however necessary to disperse them in the medium: dilution of the compounds in a solvent. The compounds and compositions incorporated in the agar medium can be diluted beforehand in one or more solvents (Tween® 80 diluted with water, Tween® 80 diluted with […], DMSO diluted with water). The strains are deposited onto the agar surface with a steers apparatus. In the examples, different dissolution methods for products are tested in parallel to circumvent the problems of water/solvent distribution coefficient of the molecules (antimicrobial and potentiator) whereas the bacteria grow only in the aqueous phase. The technical requirement will not intervene in in vivo tests. The same dilution methods can be implemented in a liquid medium (microplates and tubes). The same methodology is implemented with fungi. […] MIC measurement: the minimum inhibitory concentration measurement tests are made in an agar solid medium according to international standards in force (CLSI standards), according to the previously defined protocol. […] The booster contribution as compared with the MIC of the antibiotic alone is expressed in a (MIC ATB)/(MIC ATB+booster) ratio. Thereby, gains are defined: […] The yeast strains tested (n=33) belong to the […] albicans, Candida tropicalis, Candida krusei, Candida parapsilosis, Candida glabrata species.
# Pseudomonas Strain 08131 = assay: Etest, Pseudomonas Strain 08131; type: cell-based; conditions: for MIC: Pseudomonas, STRAIN08131, Strain 08131, read-out: MIC of Pipera tazo; for MIC of Meropenem: Strain 08131
# Description: (§1) The corresponding tests are made based on the usual MIC test: the Etest® (Biomerieux) strip is deposited onto the surface of a seeded agar medium in which the booster has been incorporated. This test enables solvent effect risks, that is a possible interaction with the solvent used in vitro, to be minimised.
# (§2) The control corresponds to the test made without cineol. A control is made in each solvent tested: distilled water, Tween/water and DMSO.
# (§3) ED control=antibiotic alone in distilled water
# (§4) DMSO control=antibiotic alone in DMSO
# (§5) TE control=antibiotic alone in Tween® 80
# Pseudomonas Strain 08132 = assay: Etest, Pseudomonas Strain 08132; type: cell-based
# Description: as §1, §2, §3, §4, §5
# E. Coli Strain 08138 = assay: Etest, E. Coli Strain 08138; type: cell-based; conditions: for MIC: Escherichia coli, read-out: MIC of Pipera tazo, Strain 08138; for MIC of Cefoxitine: Strain 08138
# Description: as §1, §2, §3, §4, §5
# MRSA 10178 = assay: Etest, staphylococci MRSA 10178; type: cell-based; conditions: MRSA 10178
# Description: as §1, §2, §3, §4, §5
# MSSA 8237 = assay: Etest, staphylococci MSSA 8237; type: cell-based; conditions: for MIC: Staphylococcus aureus, MSSA
# Description: as §1, §2, §3, §4, §5
# [1] = test system: Strain 10168, methicillin resistant S. aureus (MRSA); assay: Resistance test (resistant mutants), Strain 10168; type: cell-based; conditions: MRSA, text after Table 16
# Experimental: After 48 h incubation, the presence or absence of colonies likely to be resistant mutants is observed.
# ED control or DMSO=only distilled water or DMSO is added
# Ciprofloxacine DMSO: addition of Ciprofloxacine in DMSO
# [2] = booster 1 mg/L in agar, Tween/water
# [3] = booster 4 mg/L in agar, Tween/water
# [4] = booster 16 mg/L in agar, Tween/water
# [5] = MSSA 8237, booster 1 mg/L in agar, DMSO
# [6] = MSSA 8237, booster 1 mg/L in agar, Tween/water
# [7] = MSSA 8237, booster 4 mg/L in agar, DMSO
# [8] = MSSA 8237, booster 4 mg/L in agar, Tween/water
# [9] = MSSA 8237, booster 16 mg/L in agar, DMSO
# [10] = MSSA 8237, booster 16 mg/L in agar, Tween/water
smiles,measurement,setting,value
"O=C(OCc1ccccc1)c1ccccc1 [BB, benzyl benzoate]",MIC 50 gain,candidas; ratio 64/100,0.13
same,MIC 90 gain,candidas; ratio 64/100,0.50
same,MIC 50 gain,candidas; ratio 64/500,1.00
same,MIC 90 gain,candidas; ratio 64/500,1.00
same,MIC,"Pseudomonas Strain 08131; booster 1 mg/L in agar, DMSO",6 µg/mL
same,MIC,Pseudomonas Strain 08131; [2],8 µg/mL
same,MIC,"Pseudomonas Strain 08131; booster 4 mg/L in agar, DMSO",8 µg/mL
same,MIC,Pseudomonas Strain 08131; [3],6 µg/mL
same,MIC,"Pseudomonas Strain 08131; booster 16 mg/L in agar, DMSO",6 µg/mL
same,MIC,Pseudomonas Strain 08131; [4],4 µg/mL
same,MIC of Meropenem,"Pseudomonas Strain 08131; booster 1 mg/L in agar, DMSO",1.5 µg/mL
same,MIC of Meropenem,Pseudomonas Strain 08131; [2],3 µg/mL
same,MIC of Meropenem,"Pseudomonas Strain 08131; booster 4 mg/L in agar, DMSO",2 µg/mL
same,MIC of Meropenem,Pseudomonas Strain 08131; [3],3 µg/mL
same,MIC of Meropenem,"Pseudomonas Strain 08131; booster 16 mg/L in agar, DMSO",2 µg/mL
same,MIC of Meropenem,Pseudomonas Strain 08131; [4],1 µg/mL
same,MIC of Meropenem,"Pseudomonas Strain 08132; booster 4 mg/L in agar, DMSO",8 µg/mL
same,MIC of Meropenem,Pseudomonas Strain 08132; [3],8 µg/mL
same,MIC of Meropenem,"Pseudomonas Strain 08132; booster 16 mg/L in agar, DMSO",2 µg/mL
same,MIC of Meropenem,Pseudomonas Strain 08132; [4],12 µg/mL
same,MIC,"E. Coli Strain 08138; booster 1 mg/L in agar, DMSO",3 µg/mL
same,MIC,E. Coli Strain 08138; [2],6 µg/mL
same,MIC,"E. Coli Strain 08138; booster 4 mg/L in agar, DMSO",6 µg/mL
same,MIC,E. Coli Strain 08138; [3],4 µg/mL
same,MIC,"E. Coli Strain 08138; booster 16 mg/L in agar, DMSO",6 µg/mL
same,MIC,E. Coli Strain 08138; [4],4 µg/mL
same,MIC of Cefoxitine,"E. Coli Strain 08138; booster 1 mg/L in agar, DMSO",2 µg/mL
same,MIC of Cefoxitine,E. Coli Strain 08138; [2],2 µg/mL
same,MIC of Cefoxitine,"E. Coli Strain 08138; booster 4 mg/L in agar, DMSO",3 µg/mL
same,MIC of Cefoxitine,E. Coli Strain 08138; [3],2 µg/mL
same,MIC of Cefoxitine,"E. Coli Strain 08138; booster 16 mg/L in agar, DMSO",2 µg/mL
same,MIC of Cefoxitine,E. Coli Strain 08138; [4],3 µg/mL
same,MIC of Cefoxitine,"MRSA 10178; booster 1 mg/L in agar, DMSO",3 µg/mL
same,MIC of Tigecycline,"MRSA 10178; booster 1 mg/L in agar, DMSO",0.047 µg/mL
same,MIC of Cefoxitine,MRSA 10178; [2],3 µg/mL
same,MIC of Tigecycline,MRSA 10178; [2],0.094 µg/mL
same,MIC of Cefoxitine,"MRSA 10178; booster 4 mg/L in agar, DMSO",2 µg/mL
same,MIC of Tigecycline,"MRSA 10178; booster 4 mg/L in agar, DMSO",0.125 µg/mL
same,MIC of Cefoxitine,MRSA 10178; [3],2 µg/mL
same,MIC of Tigecycline,MRSA 10178; [3],0.25 µg/mL
same,MIC of Cefoxitine,"MRSA 10178; booster 16 mg/L in agar, DMSO",1 µg/mL
same,MIC of Tigecycline,"MRSA 10178; booster 16 mg/L in agar, DMSO",0.032 µg/mL
same,MIC of Cefoxitine,MRSA 10178; [4],1.5 µg/mL
same,MIC of Tigecycline,MRSA 10178; [4],0.047 µg/mL
same,MIC of Cefoxitine,MSSA 8237; [5],2 µg/mL
same,MIC of Meropenem,MSSA 8237; [5],0.25 µg/mL
same,MIC of Penicillin G,MSSA 8237; [5],0.38 µg/mL
same,MIC of Cefoxitine,MSSA 8237; [6],3 µg/mL
same,MIC of Meropenem,MSSA 8237; [6],0.19 µg/mL
same,MIC of Penicillin G,MSSA 8237; [6],0.25 µg/mL
same,MIC of Cefoxitine,MSSA 8237; [7],3 µg/mL
same,MIC of Meropenem,MSSA 8237; [7],0.19 µg/mL
same,MIC of Penicillin G,MSSA 8237; [7],0.25 µg/mL
same,MIC of Cefoxitine,MSSA 8237; [8],3 µg/mL
same,MIC of Meropenem,MSSA 8237; [8],0.125 µg/mL
same,MIC of Penicillin G,MSSA 8237; [8],0.19 µg/mL
same,MIC of Cefoxitine,MSSA 8237; [9],3 µg/mL
same,MIC of Meropenem,MSSA 8237; [9],0.19 µg/mL
same,MIC of Penicillin G,MSSA 8237; [9],0.19 µg/mL
same,MIC of Cefoxitine,MSSA 8237; [10],3 µg/mL
same,MIC of Meropenem,MSSA 8237; [10],0.064 µg/mL
same,MIC of Penicillin G,MSSA 8237; [10],0.125 µg/mL
same,MIC,"MSSA 8237; MSSA 8237, booster 1 mg/L in agar, DMSO, read-out: MIC of Clindamycine",0.047 µg/mL
same,MIC,"MSSA 8237; MSSA 8237, booster 1 mg/L in agar, Tween/water, read-out: MIC of Clindamycine",0.047 µg/mL
same,MIC,"MSSA 8237; MSSA 8237, booster 4 mg/L in agar, DMSO, read-out: MIC of Clindamycine",0.047 µg/mL
same,MIC,"MSSA 8237; MSSA 8237, booster 4 mg/L in agar, Tween/water, read-out: MIC of Clindamycine",0.047 µg/mL
same,MIC,"MSSA 8237; MSSA 8237, booster 16 mg/L in agar, DMSO, read-out: MIC of Clindamycine",0.047 µg/mL
same,MIC,"MSSA 8237; MSSA 8237, booster 16 mg/L in agar, Tween/water, read-out: MIC of Clindamycine",0.094 µg/mL
same,MIC,"MSSA 8237; read-out: MIC of Pipera tazo, MSSA 8237, booster 1 mg/L in agar, DMSO",1 µg/mL
same,MIC,"MSSA 8237; read-out: MIC of Pipera tazo, MSSA 8237, booster 1 mg/L in agar, Tween/water",1 µg/mL
same,MIC,"MSSA 8237; read-out: MIC of Pipera tazo, MSSA 8237, booster 4 mg/L in agar, DMSO",1 µg/mL
same,MIC,"MSSA 8237; read-out: MIC of Pipera tazo, MSSA 8237, booster 4 mg/L in agar, Tween/water",1 µg/mL
same,MIC,"MSSA 8237; read-out: MIC of Pipera tazo, MSSA 8237, booster 16 mg/L in agar, DMSO",0.75 µg/mL
same,MIC,"MSSA 8237; read-out: MIC of Pipera tazo, MSSA 8237, booster 16 mg/L in agar, Tween/water",0.75 µg/mL
same,occurrence of mutants on addition of the compound to ciprofloxacine,[1],does not cause the occurrence of mutants any longer
